Marks after values point to notes of the source that are not given here.
Legend:
[1] = Intrinsic dissolution rate, fibre optic UV probe with SOTAX dissolution apparatus; format: physicochemical; conditions: pH 6.5 buffer, 37° C., 50 mg discs, UV at 260 nm, triplicate
Description: The intrinsic dissolution rate was determined by using a fibre optic UV probe, measuring at 260 nm, with a SOTAX dissolution apparatus. Each of the pots in the dissolution batch was filled with 500 ml of pH 6.5 buffer and heated to 37° C. 50 mg Of each compound was weighed out in triplicate. Each of these samples was placed into a 4 mm dye and compressed at 50 psi for 5 minutes to produce suitable discs. These discs were then placed into the dissolution bath and the UV absorbance measured at regular intervals. Standards were prepared at approximately 20 μg/ml concentrations in pH 6.5 buffer. Scans of the background and corresponding standards were taken and a standard recovery check was produced.

[2] = Stability of the salts on storage, assessed by NMR; conditions: for stability of the salt: prolonged storage at ambient (400 MHz proton NMR), ammonium salt also vacuum drying at 50° C. overnight
[3] = Solubility of the salts in water, N-methylpyrrolidinone and IMS

IDR (intrinsic dissolution rate) [1] | stability of the salt [2] | stability of the salt assessed by NMR ([2]; 2 days at 50° C.) | solubility in N-methylpyrrolidinone ([3]; N-methylpyrrolidinone) | solubility in water ([3]; water) | Compound
1.37 ^a mg/min/cm^2 | very stable | – | – | – | COc1nc(C)cnc1[N-]S(=O)(=O)c1cccnc1-c1ccc(-c2nnco2)cc1.[Na+] [Compound (I) Sodium Salt]
0.84 mg/min/cm^2 | – | stable | – | – | COc1nc(C)cnc1NS(=O)(=O)c1cccnc1-c1ccc(-c2nnco2)cc1.NCCO [Compound (I) Ethanolamine Salt]
0.05 mg/min/cm^2 | – | – | – | – | COc1nc(C)cnc1NS(=O)(=O)c1cccnc1-c1ccc(-c2nnco2)cc1 [Compound (I), N-(3-methoxy-5-methylpyrazin-2-yl)-2-(4-[1,3,4-oxadiazol-2-yl]phenyl)pyridine-3-sulphonamide]
0.14 mg/min/cm^2 | relatively unstable | – | is not | very water soluble | COc1nc(C)cnc1NS(=O)(=O)c1cccnc1-c1ccc(-c2nnco2)cc1.N [Compound (I) Ammonium Salt]
